Data reported in the supplement of paper PMC13380429.

What was measured:
[1] = test system: A549-ACE2 infected with SARS-CoV-2; assay: morphology score (similarity to uninfected cells); higher = more like uninfected cells; details: 24 h
HepG2 [2] = assay: drug sensitivity score (DSS) for viability; higher = more toxic; extreme values may be limits of the assay; details: 72 h
Caco-2 [3] = assay: as above; details: 72 h
U2OS [4] = assay: as above; details: 72 h
Vero E6 [5] = assay: as above; details: 72 h
Calu-3 [6] = assay: as above; details: 72 h
[7] = test system: A549-ACE2 infected with SARS-CoV-2; assay: SARS-CoV-2 infection rate relative to DMSO; higher = more infection; details: 24 h
A549-ACE2 [8] = assay: drug-induced phospholipidosis relative to tamoxifen; higher = more phospholipidosis
HepG2 [9] = assay: cell viability relative to DMSO; higher = less toxic; details: 72 h
Caco-2 [10] = assay: as above; details: 72 h
U2OS [11] = assay: as above; details: 72 h
Vero E6 [12] = assay: as above; details: 72 h
Calu-3 [13] = assay: as above; details: 72 h
[14] = test system: A549-ACE2 infected with SARS-CoV-2; assay: cell count relative to DMSO; higher = less toxic; details: 24 h
HepG2 [15] = assay: relative viability EC50 (midpoint between 100% and the lowest measured viability); higher = less toxic; details: 72 h
Caco-2 [16] = assay: as above; details: 72 h
U2OS [17] = assay: as above; details: 72 h
Vero E6 [18] = assay: as above; details: 72 h
Calu-3 [19] = assay: as above; details: 72 h
A549-ACE2 [20] = assay: phospholipidosis EC50; higher = less potent phospholipidosis inducer

CCN(CC)CCOC(=O)C1(C2CCCCC2)CCCCC1 [dicycloverine]
Details | SARS-CoV-2 infection rate, [7] [%] | cell count, [14] [%] | cell viability, Caco-2 [10] [%] | cell viability, Calu-3 [13] [%] | cell viability, HepG2 [9] [%] | cell viability, U2OS [11] [%] | cell viability, Vero E6 [12] [%] | morphology score, [1]
1 nM | – | – | 99.3 | 93.2 | 95.7 | 97 | 96.1 | –
10 nM | – | – | 95.6 | 104 | 97.6 | 99.3 | 94 | –
100 nM | – | – | 97.2 | 91.8 | 103 | 99.3 | 98 | –
0.3 µM | 94 | 97 | – | – | – | – | – | 0.02
1000 nM | – | – | 98.1 | 91.8 | 98.7 | 108 | 92.6 | –
3 µM | 66 | 112 | – | – | – | – | – | 0.62
10 µM | 46 | 114 | – | – | – | – | – | 0.78
10000 nM | – | – | 102 | 102 | 105 | 104 | 108 | –
30 µM | 34 | 118 | – | – | – | – | – | 0.84

Details | drug sensitivity score | relative viability EC50 [µM]
Caco-2 [3] | 0 | –
Caco-2 [16] | – | > 10
Calu-3 [6] | 0 | –
Calu-3 [19] | – | > 10
HepG2 [2] | 0 | –
HepG2 [15] | – | > 10
U2OS [4] | 0 | –
U2OS [17] | – | > 10
Vero E6 [5] | 0 | –
Vero E6 [18] | – | > 10

drug-induced phospholipidosis [%], A549-ACE2 [8]
Details | 0.3 µM | 0.833333 µM | 3.33333 µM | 6.66667 µM | 10 µM | 30 µM
24 h | 4.66 | 1.82 | 4.06 | 5.19 | 6.77 | 68.6
48 h | 6.16 | 1.46 | 3.34 | 3.8 | 4.6 | 45.9
72 h | 5.16 | -0.588 | 0.239 | 2.22 | 2.64 | 30.3

CN(C)c1ccccc1CN1CCCN(Cc2ccccc2N(C)C)C1c1ccncc1 [GANT-61]
Details | SARS-CoV-2 infection rate [%] | cell count [%] | cell viability [%] | morphology score | phospholipidosis EC50 [µM]
A549-ACE2 [20], 24 h | – | – | – | – | 3.39
A549-ACE2 [20], 48 h | – | – | – | – | 4.52
A549-ACE2 [20], 72 h | – | – | – | – | 6.2
Caco-2 [10], 1 nM | – | – | 94.5 | – | –
Caco-2 [10], 10 nM | – | – | 99.9 | – | –
Caco-2 [10], 100 nM | – | – | 92.7 | – | –
Caco-2 [10], 1000 nM | – | – | 99 | – | –
Caco-2 [10], 10000 nM | – | – | 95.9 | – | –
Calu-3 [13], 1 nM | – | – | 111 | – | –
Calu-3 [13], 10 nM | – | – | 109 | – | –
Calu-3 [13], 100 nM | – | – | 110 | – | –
Calu-3 [13], 1000 nM | – | – | 88.2 | – | –
Calu-3 [13], 10000 nM | – | – | 47.1 | – | –
HepG2 [9], 1 nM | – | – | 100 | – | –
HepG2 [9], 10 nM | – | – | 105 | – | –
HepG2 [9], 100 nM | – | – | 97.5 | – | –
HepG2 [9], 1000 nM | – | – | 95.3 | – | –
HepG2 [9], 10000 nM | – | – | 71.1 | – | –
U2OS [11], 1 nM | – | – | 97.5 | – | –
U2OS [11], 10 nM | – | – | 94 | – | –
U2OS [11], 100 nM | – | – | 95.8 | – | –
U2OS [11], 1000 nM | – | – | 100 | – | –
U2OS [11], 10000 nM | – | – | 93.5 | – | –
Vero E6 [12], 1 nM | – | – | 97.7 | – | –
Vero E6 [12], 10 nM | – | – | 101 | – | –
Vero E6 [12], 100 nM | – | – | 96 | – | –
Vero E6 [12], 1000 nM | – | – | 95.6 | – | –
Vero E6 [12], 10000 nM | – | – | 95 | – | –
[1], 0.3 µM | – | – | – | -0.11 | –
[1], 3 µM | – | – | – | 0.59 | –
[1], 10 µM | – | – | – | 0.68 | –
[1], 30 µM | – | – | – | 0.26 | –
[7], 0.3 µM | 99 | – | – | – | –
[7], 3 µM | 64 | – | – | – | –
[7], 10 µM | 33 | – | – | – | –
[7], 30 µM | 41 | – | – | – | –
[14], 0.3 µM | – | 95 | – | – | –
[14], 3 µM | – | 110 | – | – | –
[14], 10 µM | – | 117 | – | – | –
[14], 30 µM | – | 109 | – | – | –

Details | drug sensitivity score | relative viability EC50 [µM]
Caco-2 [3] | 0 | –
Caco-2 [16] | – | > 10
Calu-3 [6] | 4.7 | –
Calu-3 [19] | – | 1.65
HepG2 [2] | 2 | –
U2OS [4] | 0 | –
U2OS [17] | – | > 10
Vero E6 [5] | 0 | –
Vero E6 [18] | – | > 10

drug-induced phospholipidosis [%], A549-ACE2 [8]
Details | 0.3 µM | 0.833333 µM | 3.33333 µM | 6.66667 µM | 10 µM | 30 µM
24 h | 3.13 | 5.25 | 60.1 | 90.1 | 94.9 | 116
48 h | 6.4 | 5.75 | 51.9 | 94.9 | 118 | 135
72 h | 6.86 | 6.64 | 47 | 96.1 | 125 | –
